US10125138B2, “Triazolotriazinone derivatives having activity a s herbicides” (Syngenta Participations AG, priority 2015, dated 2018)

Tests used:
Type in all cases: in vivo
Details in all cases: 1000 g/h, evaluated after 13 days, five point scale
[1] = tested on: Lolium perenne (LOLPE); experiment: Post-emergence glasshouse herbicide test, Lolium perenne
Method: (§1) Seeds of a variety of test species are sown in standard soil in pots (Lolium perenne (LOLPE), Solanum nigrum (SOLNI), Amaranthus retoflexus (AMARE), Setaria faberi (SETFA), Echinochloa crus-galli (ECHCG), Ipomoea hederacea (IPOHE)). After cultivation for one day (pre-emergence) or after 8 days cultivation (post-emergence) under controlled conditions in a glasshouse (at 24/16° C., day/night; 14 hours light; 65% humidity), the plants are sprayed with an aqueous spray solution derived from the formulation of the technical active ingredient in acetone/water (50:50) solution containing 0.5% Tween 20 (polyoxyethelyene sorbitan monolaurate, CAS RN 9005-64-5). […] The test plants are then grown in a glasshouse under controlled conditions in a glasshouse (at 24/16° C., day/night; 14 hours light; 65% humidity) and watered twice daily. After 13 days for pre and post-emergence, the test is evaluated for the percentage damage caused to the plant. The biological activities are shown in the following table on a five point scale (5=80-100%; 4=60-79%; 3=40-59%; 2=20-39%; 1=0-19%).

[2] = tested on: Solanum nigrum (SOLNI); experiment: Pre-emergence glasshouse herbicide test, Solanum nigrum
Method: (§2) Seeds of a variety of test species are sown in standard soil in pots (Lolium perenne (LOLPE), Solanum nigrum (SOLNI), Amaranthus retoflexus (AMARE), Setaria faberi (SETFA), Echinochloa crus-galli (ECHCG), Ipomoea hederacea (IPOHE)). After cultivation for one day (pre-emergence) or after 8 days cultivation (post-emergence) under controlled conditions in a glasshouse (at 24/16° C., day/night; 14 hours light; 65% humidity), the plants are sprayed with an aqueous spray solution derived from the formulation of the technical active ingredient in acetone/water (50:50) solution containing 0.5% Tween 20 (polyoxyethelyene sorbitan monolaurate, CAS RN 9005-64-5). Compounds are applied at 1000 g/h. The test plants are then grown in a glasshouse under controlled conditions in a glasshouse (at 24/16° C., day/night; 14 hours light; 65% humidity) and watered twice daily. After 13 days for pre and post-emergence, the test is evaluated for the percentage damage caused to the plant. The biological activities are shown in the following table on a five point scale (5=80-100%; 4=60-79%; 3=40-59%; 2=20-39%; 1=0-19%).

[3] = tested on: Setaria faberi (SETFA); experiment: Post-emergence glasshouse herbicide test, Setaria faberi
Method: as §1

[4] = tested on: Amaranthus retoflexus (AMARE); experiment: Pre-emergence glasshouse herbicide test, Amaranthus retoflexus
Method: as §1

[5] = tested on: Echinochloa crus-galli (ECHCG); experiment: Post-emergence glasshouse herbicide test, Echinochloa crus-galli
Method: as §1

[6] = tested on: Amaranthus retoflexus (AMARE); experiment: Post-emergence glasshouse herbicide test, Amaranthus retoflexus
Method: as §1

[7] = tested on: Solanum nigrum (SOLNI); experiment: Post-emergence glasshouse herbicide test, Solanum nigrum
Method: as §2

[8] = tested on: Ipomoea hederacea (IPOHE); experiment: Pre-emergence glasshouse herbicide test, Ipomoea hederacea
Method: as §1

[9] = tested on: Echinochloa crus-galli (ECHCG); experiment: Pre-emergence glasshouse herbicide test, Echinochloa crus-galli
Method: as §1

[10] = tested on: Ipomoea hederacea (IPOHE); experiment: Post-emergence glasshouse herbicide test, Ipomoea hederacea
Method: as §1

[11] = tested on: Lolium perenne (LOLPE); experiment: Pre-emergence glasshouse herbicide test, Lolium perenne
Method: as §1

[12] = tested on: Setaria faberi (SETFA); experiment: Pre-emergence glasshouse herbicide test, Setaria faberi
Method: as §1

SMILES	percentage damage caused to the plant, POST Application LOLPE [1]	percentage damage caused to the plant, PRE Application SOLNI [2]	percentage damage caused to the plant, POST Application SETFA [3]	percentage damage caused to the plant, PRE Application AMARE [4]	percentage damage caused to the plant, POST Application ECHCG [5]	percentage damage caused to the plant, POST Application AMARE [6]	percentage damage caused to the plant, POST Application SOLNI [7]	percentage damage caused to the plant, PRE Application IPOHE [8]	percentage damage caused to the plant, PRE Application ECHCG [9]	percentage damage caused to the plant, POST Application IPOHE [10]	percentage damage caused to the plant, PRE Application LOLPE [11]	percentage damage caused to the plant, PRE Application SETFA [12]
CCCCn1nnnc1NC(=O)c1nn2cnn(-c3ccc(F)cc3)c2nc1=O [Compound 1.039]	5 (5=80-100%)	5 (5=80-100%)	5 (5=80-100%)	5 (5=80-100%)	5 (5=80-100%)	5 (5=80-100%)	5 (5=80-100%)	4 (4=60-79%)	5 (5=80-100%)	5 (5=80-100%)	5 (5=80-100%)	5 (5=80-100%)
CCCn1nnnc1NC(=O)c1nn2cnn(-c3ccccc3)c2nc1=O [Compound 1.014]	5 (5=80-100%)	5 (5=80-100%)	5 (5=80-100%)	5 (5=80-100%)	5 (5=80-100%)	5 (5=80-100%)	5 (5=80-100%)	5 (5=80-100%)	5 (5=80-100%)	5 (5=80-100%)	5 (5=80-100%)	5 (5=80-100%)
CCn1nnnc1NC(=O)c1nn2cnn(-c3ccccc3)c2nc1=O [Compound 1.013]	5 (5=80-100%)	5 (5=80-100%)	5 (5=80-100%)	5 (5=80-100%)	5 (5=80-100%)	5 (5=80-100%)	5 (5=80-100%)	5 (5=80-100%)	5 (5=80-100%)	5 (5=80-100%)	5 (5=80-100%)	5 (5=80-100%)
CCCn1nnnc1NC(=O)c1nn2cnn(-c3ccccc3C)c2nc1=O [Compound 1.028]	5 (5=80-100%)	5 (5=80-100%)	5 (5=80-100%)	5 (5=80-100%)	5 (5=80-100%)	5 (5=80-100%)	5 (5=80-100%)	5 (5=80-100%)	5 (5=80-100%)	5 (5=80-100%)	5 (5=80-100%)	5 (5=80-100%)
Cn1cnnc1NC(=O)c1nn2cnn(-c3ccc(F)cc3)c2nc1=O [Compound 3.001]	1 (1=0-19%)	1 (1=0-19%)	1 (1=0-19%)	3 (3=40-59%)	1 (1=0-19%)	3 (3=40-59%)	5 (5=80-100%)	1 (1=0-19%)	1 (1=0-19%)	1 (1=0-19%)	1 (1=0-19%)	1 (1=0-19%)
CCn1nnnc1NC(=O)c1nn2cnn(-c3cccc(Cl)c3)c2nc1=O [Compound 1.033]	4 (4=60-79%)	5 (5=80-100%)	5 (5=80-100%)	5 (5=80-100%)	5 (5=80-100%)	5 (5=80-100%)	5 (5=80-100%)	2 (2=20-39%)	5 (5=80-100%)	5 (5=80-100%)	5 (5=80-100%)	4 (4=60-79%)
Cn1nnnc1NC(=O)c1nn2cnn(CCCC(F)(F)F)c2nc1=O [Compound 1.011]	3 (3=40-59%)	4 (4=60-79%)	5 (5=80-100%)	5 (5=80-100%)	5 (5=80-100%)	5 (5=80-100%)	4 (4=60-79%)	4 (4=60-79%)	4 (4=60-79%)	5 (5=80-100%)	2 (2=20-39%)	5 (5=80-100%)
Cn1nnnc1NC(=O)c1nn2cnn(-c3ccc(F)cc3)c2nc1=O [Compound 1.002]	5 (5=80-100%)	5 (5=80-100%)	5 (5=80-100%)	5 (5=80-100%)	5 (5=80-100%)	5 (5=80-100%)	5 (5=80-100%)	5 (5=80-100%)	5 (5=80-100%)	5 (5=80-100%)	4 (4=60-79%)	5 (5=80-100%)
CCn1nnnc1NC(=O)c1nn2cnn(-c3ccc(F)cc3)c2nc1=O [Compound 1.037]	4 (4=60-79%)	5 (5=80-100%)	5 (5=80-100%)	5 (5=80-100%)	5 (5=80-100%)	5 (5=80-100%)	5 (5=80-100%)	5 (5=80-100%)	5 (5=80-100%)	4 (4=60-79%)	4 (4=60-79%)	5 (5=80-100%)
CCCn1nnnc1NC(=O)c1nn2cnn(CCC)c2nc1=O [Compound 1.031]	5 (5=80-100%)	5 (5=80-100%)	5 (5=80-100%)	5 (5=80-100%)	5 (5=80-100%)	5 (5=80-100%)	5 (5=80-100%)	5 (5=80-100%)	5 (5=80-100%)	5 (5=80-100%)	5 (5=80-100%)	4 (4=60-79%)
